Calls of active or inactive are those of the source. The rule behind the calls is not given here.
What was measured:
[1] = test system: Drosophila melanogaster; experiment: Disruption of mitochondria in insecticide-susceptible Drosophila melanogaster Hikone-R assessed as increase in cytochrome c release from mitochondria to cytosol at 1 mM by western blot analysis; type: functional, organism-based
[2] = test system: Drosophila melanogaster; experiment: Disruption of mitochondria in insecticide-susceptible Drosophila melanogaster Canton-S assessed as increase in cytochrome c release from mitochondria to cytosol at 1 mM by western blot analysis; type: functional, organism-based
[3] = test system: Drosophila melanogaster; experiment: Inhibition of cytochrome c oxidase in insecticide-resistance Drosophila melanogaster Hikone-R mitochondria at 100 mM using reduced cytochrome c as substrate by microplate spectrophotometer analysis
[4] = test system: Drosophila melanogaster; experiment: Inhibition of cytochrome c oxidase in insecticide-susceptible Drosophila melanogaster Canton-S mitochondria at 100 mM using reduced cytochrome c as substrate by microplate spectrophotometer analysis
[5] = Inhibition of cytochrome c oxidase in insecticide-resistance Drosophila melanogaster Hikone-R mitochondria using reduced cytochrome c as substrate by microplate spectrophotometer analysis
[6] = Inhibition of cytochrome c oxidase in insecticide-susceptible Drosophila melanogaster Canton-S mitochondria using reduced cytochrome c as substrate by microplate spectrophotometer analysis
[7] = test system: Drosophila melanogaster; conditions: Hikone-R, Mitochondria, 10 mM
Description: Inhibition of cytochrome c oxidase in insecticide-resistance Drosophila melanogaster Hikone-R mitochondria at 10 mM using reduced cytochrome c as substrate by microplate spectrophotometer analysis

[8] = test system: Drosophila melanogaster; conditions: Canton-S, Mitochondria, 10 mM
Description: Inhibition of cytochrome c oxidase in insecticide-susceptible Drosophila melanogaster Canton-S mitochondria at 10 mM using reduced cytochrome c as substrate by microplate spectrophotometer analysis

**Q.** With `C=C(C)[C@H]1Cc2c(ccc3c2O[C@@H]2COc4cc(OC)c(OC)cc4[C@@H]2C3=O)O1` as the compound, how does the Activity [1] read?
**A.** Its Activity is “Active”.

**Q.** And the Activity [2]?
**A.** Its Activity is “Active”.

**Q.** Which results are given for `CCCCCCOC=O`?
**A.** Activity [1]: Active; Activity [2]: Active; inhibition [3]: < 8%; inhibition [4]: < 8%

**Q.** Which results are given for `CC(=O)[O-].[Na+]` [SODIUM ACETATE]?
**A.** IC50 [5]: > 100 mM; IC50 [6]: > 100 mM

**Q.** For `CCC(=O)[O-].[Na+]` [SODIUM PROPIONATE], which IC50 [5] is on record?
**A.** Its IC50 is > 100 mM.

**Q.** What about the IC50 [6] of the same compound?
**A.** Its IC50 is > 100 mM.

**Q.** For `CCCCCCCOC=O`, which Activity [1] is on record?
**A.** The Activity was “Active”.

**Q.** And the Activity [2]?
**A.** The Activity was “Active”.

**Q.** What about the inhibition [3] of the same compound?
**A.** The inhibition was < 8%.

**Q.** What about the inhibition [4] of the same compound?
**A.** Its inhibition is < 8%.

**Q.** What does the source list for `CCCOC=O`?
**A.** Activity [1]: Active; Activity [2]: Active; inhibition [3]: < 8%; inhibition [4]: < 8%

**Q.** With `[N-]=[N+]=[N-]` [SODIUM AZIDE] as the compound, how does the IC50 [5] read?
**A.** The IC50 was > 16 mM.

**Q.** And the IC50 [6]?
**A.** Its IC50 is > 16 mM.

**Q.** Which results are given for `O=C[O-].[Na+]` [SODIUM FORMATE]?
**A.** IC50 [5]: > 100 mM; Activity [1]: Active; Activity [2]: Active; IC50 [6]: > 100 mM; inhibition [7]: 3%; inhibition [8]: 3%

**Q.** For `CC(C)(C)OC=O`, which Activity [1] is on record?
**A.** Its Activity is “Active”.

**Q.** What about the Activity [2] of the same compound?
**A.** Its Activity is “Active”.

**Q.** What about the inhibition [3] of the same compound?
**A.** Its inhibition is < 8%.

**Q.** And the inhibition [4]?
**A.** Its inhibition is < 8%.

**Q.** With `CCCCCC[C@H]1C(=O)O[C@H](C)[C@H](NC(=O)c2cccc(NC=O)c2O)C(=O)O[C@@H](C)[C@@H]1OC(=O)CC(C)C` as the compound, how does the Activity [1] read?
**A.** Its Activity is “Active”.

**Q.** And the Activity [2]?
**A.** The Activity was “Active”.

**Q.** With `COC=O` as the compound, how does the Activity [1] read?
**A.** Its Activity is “Active”.

**Q.** What about the Activity [2] of the same compound?
**A.** Its Activity is “Active”.

**Q.** And the inhibition [3]?
**A.** Its inhibition is < 8%.

**Q.** What about the inhibition [4] of the same compound?
**A.** Its inhibition is < 8%.

**Q.** What does the source list for `CC1(C)CNC(=NN=C(/C=C/c2ccc(C(F)(F)F)cc2)/C=C/c2ccc(C(F)(F)F)cc2)NC1` [HYDRAMETHYLNON]?
**A.** IC50 [5]: 0.48 mM; IC50 [6]: 0.47 mM

**Q.** For `CCOC=O`, which Activity [1] is on record?
**A.** The Activity was “Active”.

**Q.** And the Activity [2]?
**A.** Its Activity is “Active”.

**Q.** What about the inhibition [3] of the same compound?
**A.** The inhibition was < 8%.

**Q.** And the inhibition [4]?
**A.** The inhibition was < 8%.

**Q.** What does the source list for `CCCCOC=O`?
**A.** Activity [1]: Active; Activity [2]: Active; inhibition [3]: < 8%; inhibition [4]: < 8%

**Q.** Which results are given for `O=COCCOC=O`?
**A.** Activity [1]: Active; Activity [2]: Active; inhibition [3]: < 8%; inhibition [4]: < 8%
